IC50 and Ki data for 48 compounds are collected here from patent US8569336B2, “Compounds for the treatment of inflammatory disorders” (priority 2008, dated 2013).

Assay [1] deals with TNF-α production from human whole blood. In words: Inhibition of TNF-α production from human whole blood (hWBA), LPS stimulated, ELISA. In kind it is cell-based. Conditions: 3.5 h, human whole blood diluted 1:1, LPS stimulated, 3.5 h, TNF-α by ELISA, read-out: hWBA (IC50).
Assay [2] deals with T1, purified catalytic domain of recombinant human TACE (rhTACEc) (Homo sapiens, UniProt P78536, N452Q/S266A).
T1 construct: 6xHis (C); made in house; host or cells: baculovirus/Hi5 insect cells
In words: TACE kinetic assay: cleavage of internally quenched peptide substrate TNF-FRET 2 (Ki). In kind it is biochemical. Conditions: TNF-FRET 2 substrate.

Where two headings read alike, the source gives them in different places.

T1 sequence (P78536 215-477 S266A/N452Q): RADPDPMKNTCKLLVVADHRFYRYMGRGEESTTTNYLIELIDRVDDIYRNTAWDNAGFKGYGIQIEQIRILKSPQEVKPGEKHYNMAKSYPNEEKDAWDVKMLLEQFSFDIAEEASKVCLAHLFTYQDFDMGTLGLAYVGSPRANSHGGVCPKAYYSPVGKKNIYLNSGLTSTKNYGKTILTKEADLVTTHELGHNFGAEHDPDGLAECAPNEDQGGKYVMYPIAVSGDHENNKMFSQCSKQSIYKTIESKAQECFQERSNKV

For orientation: IC50 means the midpoint of a concentration-inhibition curve. As usually defined, the Ki is a dissociation constant, usually derived from enzyme kinetics or from competition with a known ligand. In the case of `COc1ccc2c(c1)C(=O)N(C[C@@]1(c3cc4nc(N5CCC(OC)(OC)CC5)ccc4o3)NC(=O)NC1=O)C2` [Compound 2109], the IC50 in assay [1] (Homo sapiens) turned out to be 161 nM. The Ki in assay [2] (read-out: Ki) stood at 0.75 nM.
In the case of `COc1ccc2c(c1)C(=O)N(C[C@@]1(c3cc4nc(Nc5c(C)cnn5C)ccc4o3)NC(=O)NC1=O)C2` [Compound 2111], the IC50 in assay [1] (Homo sapiens) was found to be 1130 nM. Also, the Ki in assay [2] (read-out: Ki) amounted to 0.762 nM.
For `COc1ccc2c(c1)C(=O)N(C[C@@]1(c3cc4nc(Nc5nccs5)ccc4o3)NC(=O)NC1=O)C2` [Compound 2113], in that order: 1400 nM and 0.62 nM.
On to `COc1ccc2c(c1)C(=O)N(C[C@@]1(c3cc4nc(N5CCNC(=O)C5)ccc4o3)NC(=O)NC1=O)C2` [Compound 2114], for which the 50% inhibitory concentration (IC50) in assay [1] (Homo sapiens) came to 193 nM. The Ki in assay [2] (read-out: Ki) is 0.306 nM.
For `COc1ccc2c(c1F)C(=O)N(C[C@@]1(c3cc4nc(-c5cn[nH]c5)ccc4o3)NC(=O)NC1=O)C2` [Compound 2121], in that order: 102 nM and 0.263 nM.
In the same order, the values of `COc1ccc2c(c1)C(=O)N(C[C@@]1(c3cc4nc(N5CCNCC5)ccc4o3)NC(=O)NC1=O)C2` [Compound 2126] are 194 nM and 0.661 nM.
With `COc1ccc2c(c1)C(=O)N(C[C@@]1(c3cc4nc(N5CCNC5=O)ccc4o3)NC(=O)NC1=O)C2` [Compound 2127], in assay [1] (Homo sapiens), the 50% inhibitory concentration (IC50) worked out at 221 nM. The Ki in assay [2] (read-out: Ki) is 0.435 nM.
For `COc1ccc2c(c1)C(=O)N(C[C@@]1(c3cc4nc(Nc5ccccn5)ccc4o3)NC(=O)NC1=O)C2` [Compound 2128], in assay [1] (Homo sapiens), the 50% inhibitory concentration (IC50) was found to be 1910 nM. In addition, in assay [2] (read-out: Ki), the Ki amounted to 0.888 nM.
For `COc1ccc2c(c1)C(=O)N(C[C@@]1(c3cc4nc(Nc5c(C)noc5C)ccc4o3)NC(=O)NC1=O)C2` [Compound 2133], in that order: 460 nM and 0.635 nM.
For `COc1ccc2c(c1)C(=O)N(C[C@@]1(c3cc4nc(N5CCCNC5=O)ccc4o3)NC(=O)NC1=O)C2` [Compound 2134], in that order: 115 nM and 0.467 nM.
For `COc1ccc2c(c1)C(=O)N(C[C@@]1(c3cc4nc(Nc5ccncc5)ccc4o3)NC(=O)NC1=O)C2` [Compound 2136], in that order: 247 nM and 0.427 nM.
Turning to `COc1ccc2c(c1)C(=O)N(C[C@@]1(c3cc4nc(NC(=O)[C@@H](C)O)ccc4o3)NC(=O)NC1=O)C2` [Compound 2137], the IC50 in assay [1] (Homo sapiens) came out at 310 nM. For the same compound, the Ki in assay [2] (read-out: Ki) stood at 0.36 nM.
In the same order, the values of `COc1ccc2c(c1)C(=O)N(C[C@@]1(c3cc4nc(N(C)c5ccncc5)ccc4o3)NC(=O)NC1=O)C2` [Compound 2138] are 524 nM and 0.881 nM.
In the same order, the values of `CNC1CCN(c2ccc3oc([C@]4(CN5Cc6ccc(OC)cc6C5=O)NC(=O)NC4=O)cc3n2)CC1` [Compound 2139] are 388 nM and 1.44 nM.
In the same order, the values of `COc1ccc2c(c1)C(=O)N(C[C@@]1(c3cc4nc(N5CCN(c6ccncc6)CC5)ccc4o3)NC(=O)NC1=O)C2` [Compound 2143] are 551 nM and 0.976 nM.
On to `COc1ccc2c(c1)C(=O)N(C[C@@]1(c3cc4nc(Nc5nccc(O)n5)ccc4o3)NC(=O)NC1=O)C2` [Compound 2144], for which the IC50 in assay [1] (Homo sapiens) amounted to 267 nM. Moreover, in assay [2] (read-out: Ki), the Ki came to 0.194 nM.
In the same order, the values of `COc1ccc2c(c1)C(=O)N(C[C@@]1(c3cc4nc(-c5cc6ccccc6[nH]5)ccc4o3)NC(=O)NC1=O)C2` [Compound 2149] are 534 nM and 0.286 nM.
Turning to `COc1ccc2c(c1)C(=O)N(C[C@@]1(c3cc4nc(-c5ccc6nccn6c5)ccc4o3)NC(=O)NC1=O)C2` [Compound 2150], the IC50 in assay [1] (Homo sapiens) amounted to 828 nM. Moreover, the Ki in assay [2] (read-out: Ki) amounted to 0.806 nM.
In the same order, the values of `COc1ccc2c(c1)C(=O)N(C[C@@]1(c3cc4nc(-c5cnc(N(C)C)nc5)ccc4o3)NC(=O)NC1=O)C2` [Compound 2152] are 675 nM and 0.374 nM.
In the same order, the values of `COc1ccc2c(c1)C(=O)N(C[C@@]1(c3cc4nc(N5C(=O)CC[C@@H]5CO)ccc4o3)NC(=O)NC1=O)C2` [Compound 2157] are 382 nM and 0.731 nM.
As for `COc1ccc2c(c1)C(=O)N(C[C@@]1(c3cc4nc(-c5cccs5)ccc4o3)NC(=O)NC1=O)C2` [Compound 2162], the IC50 in assay [1] (Homo sapiens) was 1410 nM. In addition, in assay [2] (Ki), the Ki stood at 0.125 nM.
In the same order, the values of `COc1ccc2c(c1)C(=O)N(C[C@@]1(c3cc4nc(-c5nnn[nH]5)ccc4o3)NC(=O)NC1=O)C2` [Compound 2167] are 289 nM and 0.351 nM.
As to `COc1ccc2c(c1)C(=O)N(C[C@@]1(c3cc4nc(N5CCC(O)CC5)ccc4o3)NC(=O)NC1=O)C2` [Compound 2172], the IC50 in assay [1] (Homo sapiens) came to 210 nM. For the same compound, in assay [2] (read-out: Ki), the Ki worked out at 0.577 nM.
In the same order, the values of `COc1ccc2c(c1)C(=O)N(C[C@@]1(c3ccc(-c4ccc5c(c4)CN(CC4(C)NC(=O)NC4=O)C5=O)cc3)NC(=O)NC1=O)C2` (stereo partly drawn) [Compound 2174] are 617 nM and 1.88 nM.
In the same order, the values of `COc1ccc2c(c1)C(=O)N(C[C@@]1(c3ccc(-c4ccc(C5(CN)NC(=O)NC5=O)cc4)cc3)NC(=O)NC1=O)C2` (stereo partly drawn) [Compound 2175] are 1760 nM and 2.08 nM.
In the same order, the values of `COc1ccc2c(c1)C(=O)N(C[C@@]1(c3cc4cc(CN(C)C)ccc4o3)NC(=O)NC1=O)C2` [Compound 2176] are 1040 nM and 0.267 nM.
Regarding `COc1ccc2c(c1)C(=O)N(C[C@@]1(c3cc4cc(CO)ccc4o3)NC(=O)NC1=O)C2` [Compound 2178], the half-maximal inhibitory concentration (IC50) in assay [1] (Homo sapiens) worked out at 518 nM. Also, the inhibition constant (Ki) in assay [2] (read-out: Ki) worked out at 0.546 nM.
Regarding `COc1ccc2c(c1)C(=O)N(C[C@@]1(c3cc4cc(CNCCN)ccc4o3)NC(=O)NC1=O)C2` [Compound 2179], the concentration for half-maximal inhibition (IC50) in assay [1] (Homo sapiens) worked out at 376 nM. In assay [2] (read-out: Ki), the Ki worked out at 0.713 nM.
As for `COc1ccc2c(c1)C(=O)N(C[C@@]1(c3cc4cc(CNC5CCCCC5)ccc4o3)NC(=O)NC1=O)C2` [Compound 2180], the 50% inhibitory concentration (IC50) in assay [1] (Homo sapiens) was 617 nM. The Ki in assay [2] (read-out: Ki) was found to be 0.443 nM.
Take `COc1ccc2c(c1)C(=O)N(C[C@@]1(c3cc4cc(CNc5ccccn5)ccc4o3)NC(=O)NC1=O)C2` [Compound 2181]: the IC50 in assay [1] (Homo sapiens) came out at 1650 nM. Further, in assay [2] (read-out: Ki), the Ki amounted to 0.343 nM.
For `COc1ccc2c(c1)C(=O)N(C[C@@]1(c3cc4cc(CN)ccc4o3)NC(=O)NC1=O)C2` [Compound 2182], in that order: 532 nM and 0.79 nM.
For `COc1ccc2c(c1)C(=O)N(C[C@@]1(c3cc4cc(CNCC5CCNCC5)ccc4o3)NC(=O)NC1=O)C2` [Compound 2183], in that order: 526 nM and 1.02 nM.
Consider `COc1ccc2c(c1)C(=O)N(C[C@@]1(c3cc4cc(-c5nnc[nH]5)ccc4o3)NC(=O)NC1=O)C2` [Compound 2184], for which the IC50 in assay [1] (Homo sapiens) came out at 347 nM. For the same compound, the inhibitory constant (Ki) in assay [2] (read-out: Ki) was 0.355 nM.
With `CNCc1ccc2oc([C@]3(CN4Cc5ccc(OC)cc5C4=O)NC(=O)NC3=O)cc2c1` [Compound 2185], in assay [1] (Homo sapiens), the IC50 worked out at 1040 nM. Moreover, in assay [2] (read-out: Ki), the Ki was 3.99 nM.
For the compound `COc1ccc2c(c1)C(=O)N(C[C@@]1(c3cc4cc(CN5CCNCC5)ccc4o3)NC(=O)NC1=O)C2` [Compound 2186], the IC50 in assay [1] (Homo sapiens) came out at 345 nM. In assay [2] (read-out: Ki), the inhibition constant (Ki) stood at 0.539 nM.
For `COc1ccc2c(c1)C(=O)N(C[C@@]1(c3cc4ccc(OC)cc4o3)NC(=O)NC1=O)C2` [Compound 2187], in that order: 4030 nM and 0.989 nM.
In the same order, the values of `O=C1NC(=O)[C@](CN2Cc3ccc(O)cc3C2=O)(c2cc3cnccc3o2)N1` [Compound 2188] are 2990 nM and 2.26 nM.
For `COc1ccc2c(c1)C(=O)N(C[C@@]1(c3cc4cc(Br)ccc4o3)NC(=O)NC1=O)C2` [Compound 2192], in that order: 3310 nM and 0.491 nM.
In the case of `CCNc1nnc(-c2ccc3cc([C@]4(CN5Cc6ccc(OC)cc6C5=O)NC(=O)NC4=O)oc3c2)o1` [Compound 2193], the IC50 in assay [1] (Homo sapiens) is 170 nM. In addition, the Ki in assay [2] (read-out: Ki) came to 0.253 nM.
For `COc1ccc2c(c1)C(=O)N(C[C@@]1(c3cc4cc(-c5ccncc5)ccc4o3)NC(=O)NC1=O)C2` [Compound 2194], in that order: 1170 nM and 0.741 nM.
For the compound `COc1ccc2c(c1)C(=O)N(C[C@@]1(c3cc4cc(-c5ccc(N(C)C)nc5)ccc4o3)NC(=O)NC1=O)C2` [Compound 2197], in assay [1], the half-maximal inhibitory concentration (IC50) is 2710 nM. For the same compound, in assay [2] (read-out: Ki), the Ki is 0.849 nM.
Take `COc1ccc2c(c1)C(=O)N(C[C@@]1(c3cc4cc(-c5cnccc5OC)ccc4o3)NC(=O)NC1=O)C2` [Compound 2198]: the IC50 in assay [1] (Homo sapiens) was 1890 nM. The Ki in assay [2] (read-out: Ki) worked out at 0.637 nM.
For `COc1ccc2c(c1)C(=O)N(C[C@@]1(c3cc4cc(-c5cnccc5O)ccc4o3)NC(=O)NC1=O)C2` [Compound 2199], in that order: 7360 nM and 1.96 nM.
As for `COc1ccc2c(c1)C(=O)N(C[C@@]1(c3cc4cc(-c5cn[nH]c5)ccc4o3)NC(=O)NC1=O)C2` [Compound 2201], in assay [1] (Homo sapiens), the half-maximal inhibitory concentration (IC50) was 294 nM. Moreover, in assay [2] (read-out: Ki), the inhibitory constant (Ki) came to 0.345 nM.
In the same order, the values of `COc1ccc2c(c1)C(=O)N(C[C@@]1(c3cc4cc(-c5ccc(N)nc5)ccc4o3)NC(=O)NC1=O)C2` [Compound 2202] are 713 nM and 0.488 nM.
For `COc1ccc2c(c1)C(=O)N(C[C@@]1(c3ccc(-c4ccc(C5(C)NC(=O)NC5=O)cc4)cc3)NC(=O)NC1=O)C2` (stereo partly drawn) [Compound 2205], in that order: ≥ 1000 nM and 0.659 nM.
Consider `COc1ccc2c(c1)C(=O)N(C[C@@]1(c3ccc(-c4ccc(C5(C)NC(=O)NC5=O)nc4)cc3)NC(=O)NC1=O)C2` (stereo partly drawn) [Compound 2206], for which the 50% inhibitory concentration (IC50) in assay [1] (Homo sapiens) worked out at 1780 nM. For the same compound, the Ki in assay [2] (read-out: Ki) came to 0.82 nM.
Consider `CCC1(c2ccc3oc([C@]4(CN5Cc6ccc(OC)cc6C5=O)NC(=O)NC4=O)cc3c2)NC(=O)NC1=O` (stereo partly drawn) [Compound 2208], for which the IC50 in assay [1] (Homo sapiens) is 220 nM. Also, the Ki in assay [2] (read-out: Ki) came to 0.249 nM.
